Results: ChEMBL document CHEMBL1201862, “PubChem BioAssay data set” (2004)
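96-well plates; 48 h exposure; 5 concentrations. Endpoints by linear interpolation between flanking doses. Not reached: highest tested concentration assigned. The concentration for 50% growth inhibition is given as GI50.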 The source made the active and inactive calls. Rule as the data show it: active = GI50 up to about 1.1 µM and inactive = higher.

How the values were obtained:
Assay in all cases: NCI anticancer screen, dose series, 48 h
DU-145 = tested on: DU-145
HOP-92 = tested on: HOP-92
NCI-H226 = tested on: NCI-H226
SW-620 = tested on: SW-620
SK-OV-3 = tested on: SK-OV-3
CAKI-1 = tested on: CAKI-1
MDA-MB-435 = tested on: MDA-MB-435
SK-MEL-28 = tested on: SK-MEL-28
NCI-H460 = tested on: NCI-H460
MCF7 = tested on: MCF7
Malme-3M = tested on: Malme-3M
HCT-116 = tested on: HCT-116
A498 = tested on: A498
A549 = tested on: A549
NCI/ADR-RES = tested on: NCI/ADR-RES
HCT-15 = tested on: HCT-15
TK-10 = tested on: TK-10
T47D = tested on: T47D
SN12C = tested on: SN12C
UACC-257 = tested on: UACC-257

Structure (SMILES)	GI50 (DU-145)	GI50 (HOP-92)	GI50 (NCI-H226)	GI50 (SW-620)	GI50 (SK-OV-3)	GI50 (CAKI-1)	GI50 (MDA-MB-435)	GI50 (SK-MEL-28)	GI50 (NCI-H460)	GI50 (MCF7)	GI50 (Malme-3M)	GI50 (HCT-116)	GI50 (A498)	GI50 (A549)	GI50 (NCI/ADR-RES)	GI50 (HCT-15)	GI50 (TK-10)	GI50 (T47D)	GI50 (SN12C)	GI50 (UACC-257)
C[C@]12CC[C@@H]3c4ccc(O)cc4CC[C@H]3[C@@H]1C/C(=C\c1ccc(C#N)cc1)C2=O	57.4 µM (inactive)	26.8 µM (inactive)	37.9 µM (inactive)	24.5 µM (inactive)	57 µM (inactive)	82.8 µM (inactive)	19.4 µM (inactive)	36.2 µM (inactive)	36.1 µM (inactive)	45.5 µM (inactive)	28.3 µM (inactive)	32.9 µM (inactive)	> 100 µM (inactive)	30.8 µM (inactive)	59.3 µM (inactive)	71.8 µM	34.1 µM (inactive)	46.8 µM (inactive)	68.4 µM (inactive)	30.8 µM (inactive)
COc1ccc(S(=O)(=O)NC(CCC(=O)NC(N)=O)C(=O)NC(N)=O)cc1 (stereo unspecified)	> 100 µM (inactive)	> 100 µM (inactive)	> 100 µM (inactive)	> 100 µM (inactive)	> 100 µM (inactive)	> 100 µM (inactive)	> 100 µM (inactive)	> 100 µM (inactive)	> 100 µM (inactive)	> 100 µM (inactive)	> 100 µM (inactive)	> 100 µM (inactive)	> 100 µM (inactive)	> 100 µM (inactive)	> 100 µM (inactive)	> 100 µM	> 100 µM (inactive)	> 100 µM (inactive)	> 100 µM (inactive)	> 100 µM (inactive)
COc1ccc(-n2cnc3c(N)nc(N)nc32)cc1	> 100 µM (inactive)	> 100 µM (inactive)	> 100 µM (inactive)	> 100 µM (inactive)	> 100 µM (inactive)	76.7 µM (inactive)	> 100 µM (inactive)	> 100 µM (inactive)		90.8 µM (inactive)	> 100 µM (inactive)	> 100 µM (inactive)	54.8 µM (inactive)	93.3 µM (inactive)	> 100 µM (inactive)	> 100 µM	85.7 µM (inactive)	> 100 µM (inactive)	53.6 µM (inactive)	> 100 µM (inactive)
CC(=O)Nc1cc2cc(NS(=O)(=O)c3ccc(Cl)c(Cl)c3)ccc2oc1=O	> 100 µM (inactive)	20.8 µM (inactive)	31.8 µM (inactive)	50.7 µM (inactive)		20 µM (inactive)	36.1 µM (inactive)	35 µM (inactive)	37.8 µM (inactive)	21.2 µM (inactive)		28.2 µM (inactive)	20 µM (inactive)	32.7 µM (inactive)	34.2 µM (inactive)	90.6 µM	43.2 µM (inactive)	3.21 µM (inactive)	25.8 µM (inactive)	> 100 µM (inactive)
CCOC(=O)c1c(NC(=O)c2cccs2)sc2c1CCCC2	> 80.4 µM (inactive)	43.3 µM (inactive)	> 38.6 µM (inactive)	> 100 µM (inactive)	25.5 µM (inactive)	60.4 µM (inactive)	> 100 µM (inactive)	> 100 µM (inactive)	> 88.9 µM (inactive)	> 79.6 µM (inactive)	29 µM (inactive)	46.9 µM (inactive)	24.3 µM (inactive)	55.5 µM (inactive)	> 100 µM (inactive)	> 100 µM	45.8 µM (inactive)	30.6 µM (inactive)	> 90.4 µM (inactive)	> 100 µM (inactive)
Cn1c(N)c(/N=N/c2ccc(S(N)(=O)=O)cc2)c(=O)n(C)c1=O	> 100 µM (inactive)	> 100 µM (inactive)	> 100 µM (inactive)	> 100 µM (inactive)	79.8 µM (inactive)	> 100 µM (inactive)	> 100 µM (inactive)	> 100 µM (inactive)	> 100 µM (inactive)	> 100 µM (inactive)	> 100 µM (inactive)	> 100 µM (inactive)	> 100 µM (inactive)	> 100 µM (inactive)	> 100 µM (inactive)	> 100 µM	> 100 µM (inactive)	> 100 µM (inactive)	> 100 µM (inactive)	> 100 µM (inactive)
CCCc1cn2c(/C=N/NC(=N)N)c(-c3cccc([N+](=O)[O-])c3)nc2s1	1.74 µM (inactive)	11.1 µM (inactive)	1.66 µM (inactive)	3.08 µM (inactive)	2.22 µM (inactive)	2.01 µM (inactive)	1.76 µM (inactive)	1.43 µM (inactive)	2.22 µM (inactive)	2.48 µM (inactive)	1.3 µM (inactive)	2.27 µM (inactive)	17.3 µM (inactive)	1.73 µM (inactive)	2.92 µM (inactive)	1.84 µM	0.0405 µM (active)	1.94 µM (inactive)	1.21 µM (inactive)	1.71 µM (inactive)
O=C(CCc1cc(O)cc(O)c1)NCCCNC(=O)CCc1cc(O)cc(O)c1	> 100 µM (inactive)	> 100 µM (inactive)	> 100 µM (inactive)	> 100 µM (inactive)	> 100 µM (inactive)	> 100 µM (inactive)	> 100 µM (inactive)	> 100 µM (inactive)		> 100 µM (inactive)	> 100 µM (inactive)	> 100 µM (inactive)	> 100 µM (inactive)	> 100 µM (inactive)	> 100 µM (inactive)	> 100 µM	> 100 µM (inactive)	> 100 µM (inactive)	> 100 µM (inactive)	> 100 µM (inactive)
C[C@@H]1C[C@H]2OC(=O)[C@@]3(C)CCC[C@@](C)([C@@H]23)[C@@]1(O)CCc1ccoc1	> 100 µM (inactive)	> 100 µM (inactive)	> 61.2 µM (inactive)	> 100 µM (inactive)	> 100 µM (inactive)	> 100 µM (inactive)	> 100 µM (inactive)	> 100 µM (inactive)	56.9 µM (inactive)	> 80.2 µM (inactive)		> 87.7 µM (inactive)	> 100 µM (inactive)	> 100 µM (inactive)	> 100 µM (inactive)	79.3 µM	> 100 µM (inactive)	> 100 µM (inactive)	> 100 µM (inactive)	> 95.7 µM (inactive)
O=C(c1ccccc1)N1CCC(CC2(c3cc4ccccc4[nH]3)OCCO2)CC1	> 100 µM (inactive)	21.2 µM (inactive)	32.7 µM (inactive)	19.5 µM (inactive)	56.8 µM (inactive)	> 100 µM (inactive)	20.6 µM (inactive)	19.4 µM (inactive)	35.9 µM (inactive)	19.4 µM (inactive)		29.3 µM (inactive)	21.4 µM (inactive)	68.5 µM (inactive)	> 100 µM (inactive)	32.4 µM	28.3 µM (inactive)	41.4 µM (inactive)	> 100 µM (inactive)	27.5 µM (inactive)
O=c1c2cc(S(=O)(=O)O)ccc2nc(COc2ccc(Oc3ccc(Cl)cc3Cl)cc2)n1-c1ccc(Oc2ccc(Cl)cc2)cc1Cl	38.3 µM (inactive)	12.8 µM (inactive)	19.5 µM (inactive)	21.5 µM (inactive)	22.6 µM (inactive)	30.8 µM (inactive)	19.7 µM (inactive)		16.6 µM (inactive)	20.7 µM (inactive)	28.1 µM (inactive)	20.8 µM (inactive)	23.3 µM (inactive)	19.3 µM (inactive)	18.3 µM (inactive)	19.9 µM	22 µM (inactive)	33.1 µM (inactive)	17.7 µM (inactive)	25.2 µM (inactive)
O=Cc1ccc(Oc2c3ccccc3nc3ccccc23)cc1	3.84 µM (inactive)	4.74 µM (inactive)	4.03 µM (inactive)		4.63 µM (inactive)	7.05 µM (inactive)	2.45 µM (inactive)	12.6 µM (inactive)	16 µM (inactive)	4.42 µM (inactive)	11.8 µM (inactive)	2.14 µM (inactive)	0.869 µM (active)	18.8 µM (inactive)	10.2 µM (inactive)	4.16 µM	6.03 µM (inactive)	3.66 µM (inactive)	2.85 µM (inactive)	0.346 µM (active)
CCN1CSC(=S)N(CC)C1	> 100 µM (inactive)	> 100 µM (inactive)	> 100 µM (inactive)	36.6 µM (inactive)	> 100 µM (inactive)		46.8 µM (inactive)	> 100 µM (inactive)	56.2 µM (inactive)	41 µM (inactive)	52.7 µM (inactive)	41.3 µM (inactive)	27.8 µM (inactive)	> 100 µM (inactive)	> 100 µM (inactive)	73.3 µM	> 100 µM (inactive)	> 100 µM (inactive)	> 100 µM (inactive)	> 100 µM (inactive)
COc1ccc(C2=CC(C(C)=C(C(N)=O)C(N)=O)C=C(c3ccc(Br)cc3)C2)c(OC)c1 (stereo unspecified)	> 100 µM (inactive)	31.8 µM (inactive)	> 100 µM (inactive)	> 100 µM (inactive)	> 100 µM (inactive)	> 100 µM (inactive)	> 100 µM (inactive)	> 100 µM (inactive)	> 100 µM (inactive)	> 100 µM (inactive)		> 100 µM (inactive)	> 100 µM (inactive)	> 100 µM (inactive)	> 100 µM (inactive)	> 100 µM	> 100 µM (inactive)	39.1 µM (inactive)	> 100 µM (inactive)	> 100 µM (inactive)
CCOC(=O)c1ccc(NCC#CCN2CCOCC2)cc1	> 100 µM (inactive)	> 100 µM (inactive)	70.3 µM (inactive)	> 100 µM (inactive)	> 100 µM (inactive)		> 100 µM (inactive)	> 100 µM (inactive)		66.4 µM (inactive)	> 100 µM (inactive)	53 µM (inactive)	> 100 µM (inactive)	83.9 µM (inactive)	> 100 µM (inactive)	62.4 µM		> 100 µM (inactive)	> 100 µM (inactive)	
